In patent EP1257544B1, “PIPERAZINE AND PIPERIDINE DERIVATIVES FOR TREATMENT OR PREVENTION OF NEURONAL DAMAGE” (VERTEX PHARMACEUTICALS INCORPORATED, priority 2000, dated 2001):
Structures can show the parent of a compound that is named as a salt.

The compounds below were run on Dissociated VM cells (assay: Neuroprotection Assay (NMDA-induced neuroexcitotoxic injury, high affinity 3H-dopamine uptake)). Details: embryonic day 15 rat ventral mesencephalic cultures, NMDA (100-400 µM) for 20 hours.
Type: cell-based, Sprague-Dawley rat
From the text: The neuroprotective activity of the compounds of this invention may be assayed using rat embryo ventral mesencephalic cells in culture which are subsequently exposed to the glutamate receptor agonist NMDA. This assay is described in detail in the example section.
The ventral mesencephalic region was dissected out of embryonic day 15 Sprague-Dawley rat embryos (Harlan), dissociated into single cell suspension by a combination of trypsinization and trituration (Costantini et al., Neurobiol Dis., pp. 97-106 (1998). Dissociated VM cells were plated into poly-L-ornithine-coated 96-well plates at a density of 85,000 cells/well in 100 uL of DMEM supplemented with 18% heat-inactivated horse serum, 0.24% glucose, 2 mM glutamine and 50 u/ml pernicillin/streptomycin and incubated in a 5% CO2 incubator. After one day in culture (DIV1), the medium was replaced with 100 µL of a defined medium (DMEM supplemented with 1x N2 cocktail (Gibco-BRL), 0.12% glucose, 2 mM glutamine, and 50 units/ml penicillin/streptomycin) containing DMSO or various concentrations of the compounds of this invention. On DIV5, neuroexcitotoxic injury was induced by the addition of various concentrations of the glutamate receptor agonist NMDA (100-400 µM). Cultures were incubated with the neurotoxin for 20 hours and the effects of neurophilin compounds were assessed using high affinity ^3H-dopamine uptake according to a procedure published by Park and Mytilineou [Brain Res., 599, pp. 83-97 (1992)].

Q: With `O=C([C@@H]1CCCCN1Cc1ccccc1)N1CCN(C(c2ccc(F)cc2)c2ccc(F)cc2)CC1` [Compound 61, ((2S)-1-Benzylpiperidin-2-yl)-{4-[bis-(4-fluorophenyl)methyl]-piperazin-1-yl}-methanone] as the compound, how does the EC50 read?
A: 100 to 500 nM

Q: How did the EC50 turn out when `O=C([C@@H]1CCCCN1Cc1ccc(F)cc1)N1CCN(C(c2ccc(F)cc2)c2ccc(F)cc2)CC1` [Compound 62, {4-[Bis-(4-fluorophenyl)methyl]-pipezazin-1-yl}-[(2S)-1-(4-fluorobenzyl)-piperidin-2-yl]-methanone] was run?
A: 100 to 500 nM

Q: For `O=C([C@@H]1CCCCN1CC1CC1)N1CCN(C(c2ccc(F)cc2)c2ccc(F)cc2)CC1` [Compound 63, {4-[Bis-(4-fluorophenyl)methyl]-piperazin-1-yl}-((2S)-1-cyclopropylmethyl-piperidin-2-yl)-methanone], which EC50 is on record?
A: > 500 nM

Q: For `CC(C)=CCN1CCCC[C@H]1C(=O)N1CCN(C(c2ccc(F)cc2)c2ccc(F)cc2)CC1` [Compound 65, {4-[Bis-(4-fluorophenyl)methyl]-piperazin-1-yl}-[(2S)-1-(3-methyl-but-2-enyl)-piperidin-2-yl]-methanone], which EC50 is on record?
A: < 100 nM

Q: With `CC(C)CN1CCCC[C@H]1C(=O)N1CCN(C(c2ccc(F)cc2)c2ccc(F)cc2)CC1` [Compound 66, [4-[Bis-(4-fluorophenyl)methyl]-piperazin-1-yl]-((2S)-1-(2-methylpropyl)-piperidin-2-yl)-methanone] as the compound, how does the EC50 read?
A: > 500 nM

Q: Which EC50 does the source give for `CCN1CCCC[C@H]1C(=O)N1CCN(Cc2ccc(Cl)c(Cl)c2)CC1` [Compound 69, [4-(3,4-Dichlorobenzyl)-piperazin-1-yl]-((2S)-1-ethylpiperidin-2-yl)-methanone dihydrochloride] here?
A: < 100 nM

Q: How did the EC50 turn out when `CCN1CCCC[C@H]1C(=O)N1CCN(Cc2ccc3c(c2)OCO3)CC1` [Compound 71, (4-Benzo[1,3]dioxol-5-ylmethylpiperazin-1-yl)-((2S)-1-ethylpiperidin-2-yl)-methanone dihydrochloride] was run?
A: > 500 nM

Q: Which EC50 does the source give for `CCN1CCCC[C@H]1C(=O)N1CCN(CCc2ccccc2)CC1` [Compound 74, ((2S)-1-Ethylpiperidin-2-yl)-(4-phenethylpiperazin-1-yl)-methanone dihydrochloride] here?
A: > 500 nM

Q: Which EC50 does the source give for `CCN1CCCC[C@H]1C(=O)N1CCN(Cc2ccc(OC)cc2)CC1` [Compound 75, ((2S)-1-Ethylpiperidin-2-yl)-[4-(4-methoxybenzyl)-piperazin-1-yl]-methanone] here?
A: > 500 nM

Q: For `CCN1CCCC[C@H]1C(=O)N1CCN(Cc2ccc(F)cc2)CC1` [Compound 76, ((2S)-1-Ethylpiperidin-2-yl)-[4-(4-fluorobenzyl)-piperazin-1-yl] methanone], which EC50 is on record?
A: 100 to 500 nM

Q: With `CCN1CCCC[C@H]1C(=O)N1CCN(Cc2ccc(F)c(F)c2)CC1` [Compound 77, [4-(3,4-Difluorobenzyl)-piperazin-1-yl]-((2S) -1-ethylpiperidin-2-yl)-methanone] as the compound, how does the EC50 read?
A: 100 to 500 nM

Q: With `CCN1CCCC[C@H]1C(=O)N1CCN(C(=O)c2ccccc2)CC1` [Compound 78, [4-((2S)-1-Ethylpiperidine-2-carbonyl)-piperazin-1-yl]-phenyl methanone] as the compound, how does the EC50 read?
A: > 500 nM

Q: With `CCN1CCCC[C@H]1C(=O)N1CCN(C(=O)c2ccc(F)cc2)CC1` [Compound 79, ((2S)-1-Ethylpiperidin-2-yl)-[4-(4-fluorobenzoyl)-piperazin-1-yl] methanone hydrochloride] as the compound, how does the EC50 read?
A: 100 to 500 nM

Q: How did the EC50 turn out when `CCN1CCCC[C@H]1C(=O)N1CCN(S(=O)(=O)c2ccccc2)CC1` [Compound 80, (4-Benzenesulfonylpiperazin-1-yl)-((2S)-1-ethylpiperidin-2-yl)-methanone hydrochloride] was run?
A: > 500 nM

Q: Which EC50 does the source give for `CCN1CCCC[C@H]1C(=O)N1CCN(S(=O)(=O)c2ccc(F)cc2)CC1` [Compound 81, ((2S)-1-Ethylpiperidin-2-yl)-[4-(4-fluorobenzenesulfonyl)-piperazin-1-yl]-methanone hydrochloride] here?
A: > 500 nM

Q: `CCN1CCCC[C@H]1C(=O)N1CCC(=Cc2ccc(F)cc2)CC1` [Compound 84, ((2S)-1-Ethylpiperidin-2-yl)-[4-(4-fluorobenzylidene)piperidin-1-yl]-methanone hydrochloride] was tested. Which EC50 did it give?
A: < 100 nM

Q: For `O=C([C@@H]1CCCN1Cc1ccccc1)N1CCC(=Cc2ccc(F)cc2)CC1` [Compound 85, ((2S)-1-Benzylpyrrolidin-2-yl)-[4-(4-fluorobenzylidene)piperidin-1-yl] methanone hydrochloride], which EC50 is on record?
A: < 100 nM

Q: `O=C([C@@H]1CCCN1Cc1ccccc1)N1CCN(c2ccc(F)cc2)CC1` [Compound 86, ((2S)-1-Benzylpyrrolidin-2-yl)-[4-(4-fluorophenyl)piperazin-1-yl] methanone hydrochloride] was tested. Which EC50 did it give?
A: < 100 nM

Q: For `O=C([C@@H]1CCCN1Cc1ccccc1)N1CCN(Cc2ccc(F)cc2)CC1` [Compound 87, ((2S)-1-Benzyl-pyrrolidin-2-yl)-[4-(4-fluoro-benzyl)-piperazin-1-yl] methanone], which EC50 is on record?
A: > 500 nM

Q: How did the EC50 turn out when `O=C(C1CC2CCN1CC2)N1CCC(Cc2ccc(F)cc2)CC1` (stereo not shown) [Compound 88, (1-Aza-bicyclo[2.2.2]oct-2-yl)-[4-(4-fluoro-benzyl)-piperidin-1-yl] methanone hydrochloride] was run?
A: 100 to 500 nM

Q: How did the EC50 turn out when `CN1CCC=C(C(=O)N2CCC(Cc3ccc(F)cc3)CC2)C1` [Compound 89, [4-(4-Fluorobenzyl)piperidin-1-yl]-(1-methyl-1,2,5,6-tetrahydropyridin-3-yl) methanone hydrochloride] was run?
A: 100 to 500 nM

Q: Which EC50 does the source give for `CN1CCCC(C(=O)N2CCC(Cc3ccc(F)cc3)CC2)C1` (stereo not shown) [Compound 90, [4-(4-Fluorobenzyl)piperidin-1-yl]-(1-methylpiperidin-3-yl) methanone hydrochloride] here?
A: < 100 nM

Q: How did the EC50 turn out when `CCN1CCCC[C@H]1CN1CCN(C(c2ccccc2)c2ccccc2)CC1` [Compound 100, 1-Benzhydryl-4-((2S)-1-ethylpiperidin-2-ylmethyl)-piperazine] was run?
A: < 100 nM

Q: `CCN1CCCC[C@H]1CN1CCC(Cc2ccccc2)CC1` [Compound 101, 4-Benzyl-1-((2S)-1-ethylpiperidin-2-ylmethyl)-piperidine] was tested. Which EC50 did it give?
A: < 100 nM

Q: With `Fc1ccc(CC2CCN(C[C@@H]3CCCN3Cc3ccccc3)CC2)cc1` [Compound 103, 1-((2S)-1-Benzylpyrrolidin-2-ylmethyl)-4-(4-fluorobenzyl)piperidine dihydrochloride] as the compound, how does the EC50 read?
A: < 100 nM

Q: Which EC50 does the source give for `CO[C@@H]1C[C@@H](C(=O)N2CCC(Cc3ccccc3)CC2)N(Cc2ccccc2)C1` [Compound 153, ((2S,4R)-1-Benzyl-4-methoxypyrrolidin-2-yl)-(4-benzylpiperdin-1-yl)-methanone] here?
A: > 500 nM

Q: `COC(=O)CO[C@@H]1C[C@@H](C(=O)N2CCC(Cc3ccccc3)CC2)N(Cc2ccccc2)C1` [Compound 155, [(2S, 4R)-1-Benzyl-5-(4-benzylpiperidine-1-carbonyl)-pyrrolidin-3-yloxyl]-acetic acid methyl ester] was tested. Which EC50 did it give?
A: > 500 nM

Q: How did the EC50 turn out when `CN1CCC(C(=O)N2CCC(Cc3ccccc3)CC2)CC1` [Compound 202] was run?
A: 100 to 500 nM

Q: `CN1CCCC(C(=O)N2CCC(Cc3ccccc3)CC2)C1` (stereo not shown) [Compound 204] was tested. Which EC50 did it give?
A: 100 to 500 nM

Q: For `CN1CCC(C(=O)N2CCN(C(c3ccc(F)cc3)c3ccc(F)cc3)CC2)CC1` [Compound 218], which EC50 is on record?
A: 100 to 500 nM

Q: How did the EC50 turn out when `CN1CCCC(C(=O)N2CCN(C(c3ccc(F)cc3)c3ccc(F)cc3)CC2)C1` (stereo not shown) [Compound 220] was run?
A: > 500 nM

Q: With `CCN1CCC(C(=O)N2CCN(c3ccc(F)cc3)CC2)CC1` [Compound 226] as the compound, how does the EC50 read?
A: 100 to 500 nM

Q: `O=C(C1CCN(C/C=C/c2ccccc2)CC1)N1CCC(Cc2ccc(F)cc2)CC1` [Compound 255] was tested. Which EC50 did it give?
A: < 100 nM

Q: Which EC50 does the source give for `O=C(C1CCN(Cc2ccccc2)CC1)N1CCN(c2ccc(F)cc2)CC1` [Compound 256] here?
A: 100 to 500 nM

Q: Which EC50 does the source give for `O=C(C1CCN(Cc2ccc(F)cc2)CC1)N1CCC(Cc2ccc(F)cc2)CC1` [Compound 257] here?
A: 100 to 500 nM

Q: How did the EC50 turn out when `C=CCN1CCC(C(=O)N2CCN(c3ccc(F)cc3)CC2)CC1` [Compound 258] was run?
A: 100 to 500 nM

Q: `CC(C)=CCN1CCC(C(=O)N2CCN(c3ccc(F)cc3)CC2)CC1` [Compound 260] was tested. Which EC50 did it give?
A: < 100 nM

Q: For `O=C(C1CCN(CC2CC2)CC1)N1CCN(c2ccc(F)cc2)CC1` [Compound 262], which EC50 is on record?
A: < 100 nM

Q: With `CC(C)CN1CCC(C(=O)N2CCN(c3ccc(F)cc3)CC2)CC1` [Compound 264] as the compound, how does the EC50 read?
A: 100 to 500 nM

Q: For `O=C(C1CCN(C/C=C/c2ccccc2)CC1)N1CCN(c2ccc(F)cc2)CC1` [Compound 266], which EC50 is on record?
A: 100 to 500 nM

Q: How did the EC50 turn out when `CCN1CCC(C(=O)N2CCC(Cc3ccc(F)cc3)CC2)CC1` [Compound 270] was run?
A: 100 to 500 nM

Q: Which EC50 does the source give for `C=CCN1CCC(C(=O)N2CCC(Cc3ccc(F)cc3)CC2)CC1` [Compound 274] here?
A: > 500 nM

Q: How did the EC50 turn out when `CC(C)=CCN1CCC(C(=O)N2CCC(Cc3ccc(F)cc3)CC2)CC1` [Compound 276] was run?
A: < 100 nM
